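Exposure lasted 48 hours, with cells grown in 96-well plates and compounds tested at five concentrations. GI50: concentration for 50% inhibition of growth. TGI marks complete inhibition of growth.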
What was measured:
Assay in all cases: NCI tumour cell line growth inhibition, 48 h
[1] = test system: HL-60(TB) leukemia
[2] = test system: LOX IMVI melanoma
[3] = test system: OVCAR-8 ovarian
[4] = test system: SF-295 CNS
[5] = test system: SK-MEL-5 melanoma
[6] = test system: UO-31 renal
[7] = test system: HS 578T breast
[8] = test system: MDA-MB-231 breast
[9] = test system: PC-3 prostate
[10] = test system: DU-145 prostate

Row | SMILES | TGI [1] | TGI [2] | TGI [3] | TGI [4] | TGI [5] | TGI [6] | TGI [7] | TGI [8] | TGI [9] | GI50 [10] | TGI [10] | GI50 [1] | GI50 [7] | GI50 [2] | GI50 [8] | GI50 [3] | GI50 [9] | GI50 [4] | GI50 [5] | GI50 [6]
1 | Cc1nnc2n1N=C(c1ccccc1)C(c1ccccc1)S2 (centres undefined) | 64.5 µM | > 100 µM | > 100 µM | > 100 µM | > 100 µM | > 100 µM |  |  |  |  |  |  |  |  |  |  |  |  |  | 
2 | COC(=O)C1CC(c2ccc(OC)c(OC)c2)OC1=O (mixture of isomers) | > 100 µM | > 100 µM | > 100 µM | > 100 µM | > 100 µM | > 100 µM |  |  |  |  |  |  |  |  |  |  |  |  |  | 
3 | COC(=O)C(C(=O)C(=O)Nc1c(C)cccc1C(C)(C)C)c1nc2ccc(Cl)cc2[nH]c1=O (centres undefined) |  | > 100 µM | > 100 µM | > 100 µM | > 100 µM | > 100 µM | > 100 µM | > 100 µM | > 100 µM |  |  |  |  |  |  |  |  |  |  | 
4 | COc1cc(N2C(=O)[C@H](Cl)C2c2ccc(SC)cc2)cc(OC)c1OC (some centres undefined) | 0.703 µM | > 100 µM | > 100 µM | > 100 µM | 0.468 µM |  | > 100 µM | > 100 µM | > 100 µM | 0.168 µM | > 100 µM | 0.142 µM | 0.101 µM | 0.0635 µM | 0.238 µM | 0.226 µM | 0.0952 µM | 0.0394 µM | 0.0522 µM | 
5 | COC1(OC)C2(Cl)C3=CCCC=C3C1(Cl)C(Cl)=C2Cl | 33.2 µM | 30.2 µM | > 100 µM | 74.2 µM | 29.2 µM | 69 µM |  |  |  |  |  |  |  |  |  |  |  |  |  | 
6 | Cc1cc(Cl)ccc1NC(=O)CCCC(=O)C1C/C(=N/O)CC/C1=N\O (centres undefined) | > 100 µM |  | > 100 µM | > 100 µM | > 100 µM | > 100 µM |  |  |  |  |  |  |  |  |  |  |  |  |  | 
7 | CN(C)CCC(=O)Nc1ccc(-n2cc(-c3cccc(NC(=S)Nc4cccc(-c5cn(-c6ccc(NC(=O)CCN(C)C)cc6)nn5)c4)c3)nn2)cc1 | > 100 µM | > 100 µM | > 100 µM | 49 µM | > 100 µM |  | > 100 µM | 58.5 µM | > 100 µM | > 100 µM | > 100 µM | > 100 µM | 33.4 µM | 7.7 µM | 27.2 µM | 42.3 µM | 85.9 µM | 20.2 µM | 43.9 µM | 
8 | Cn1c(=O)oc2cc(C3CCC(=O)N3Cc3csc(-c4ccccc4)n3)ccc21 (centres undefined) | > 100 µM | > 100 µM | > 100 µM | > 100 µM | > 100 µM | > 100 µM |  |  |  |  |  |  |  |  |  |  |  |  |  | 
9 | CCOc1c(Br)cc(Br)cc1C=C(C#N)C#N | 1.19 µM | 7.36 µM | > 10 µM | > 10 µM | > 10 µM |  | > 10 µM |  | > 10 µM |  |  |  |  |  |  |  |  |  |  | 
10 | Cc1cc(=O)[nH]c(NNC(C#N)c2cccc([N+](=O)[O-])c2)n1 (centres undefined) | > 100 µM | > 100 µM | > 100 µM | > 100 µM | > 100 µM | > 100 µM |  |  |  |  |  |  |  |  |  |  |  |  |  | 
11 | CC(=O)[CH-]C(C)=O.CC(=O)[CH-]C(C)=O.[O-]c1ccccc1.[O-]c1ccccc1.[Ti+4] | > 100 µM | > 100 µM | > 100 µM | > 100 µM | > 100 µM | > 100 µM |  |  |  |  |  | > 100 µM |  | > 100 µM |  | > 100 µM |  | > 100 µM | > 100 µM | > 100 µM
12 | CCCCCCCC/C=C/CCCCCCCC1=NC(C)(C)CN1C(C)(C)CO | 5.5 µM | 2.98 µM |  | 3.52 µM | 3.13 µM |  | 3.9 µM | 3.77 µM | 4.92 µM | 1.86 µM | 3.32 µM | 2.23 µM | 1.84 µM | 1.61 µM | 1.6 µM |  | 1.83 µM | 1.81 µM | 1.75 µM | 
13 | OCc1ccc(N(Cc2ccc(F)cc2)Cc2ccc(F)cc2)cc1Cl | 35.4 µM | 23.3 µM | 27.8 µM |  | 28.9 µM | 16.2 µM | 45.5 µM | 25.9 µM | 22.8 µM |  |  | 14.5 µM | 16.2 µM | 9.51 µM | 11.8 µM | 12.5 µM | 9.08 µM |  | 15.3 µM | 3.49 µM
14 | CCCCNC(c1ccc(Cl)cc1)C(O)c1ccc(Cl)cc1 (centres undefined) | 2.93 µM | 2.7 µM | 6.02 µM | 2.44 µM | 3.2 µM | 10.2 µM | 26.9 µM |  | 7.47 µM | 3.1 µM | 10.4 µM | 1.02 µM | 4.98 µM | 1.39 µM |  | 2.51 µM | 1.92 µM | 1.02 µM | 1.73 µM | 1.55 µM
15 | Cc1ccc(C2=CC(=O)c3ccccc3C2=O)n1-c1ccccc1 | 94.2 µM | > 100 µM | > 100 µM | > 100 µM | > 100 µM |  |  |  |  |  |  |  |  |  |  |  |  |  |  | 
16 | O=c1[nH]ccc(CNC23CC4CC(CC(C4)C2)C3)c1O | > 100 µM |  | > 100 µM | > 100 µM | > 100 µM | > 100 µM |  |  |  |  |  |  |  |  |  |  |  |  |  | 
17 | CN1CCCC2[C@@H]3CCC4c5nonc5CC[C@]4(C)C3CC[C@@]21C (some centres undefined) |  |  | > 100 µM | > 100 µM | > 100 µM | > 100 µM |  |  |  |  |  |  |  |  |  |  |  |  |  | 
18 | c1cnc2c(c1)-n1cccc1C1(CCCCC1)NN2 | > 100 µM | > 100 µM | > 100 µM | > 100 µM | > 100 µM | 79.9 µM |  |  |  |  |  |  |  |  |  |  |  |  |  | 
19 | O=c1c2cccnc2ncn1CCCN1CCCCC1 |  | > 100 µM | > 100 µM | > 100 µM | > 100 µM | > 100 µM |  |  |  |  |  |  |  |  |  |  |  |  |  | 
20 | C/C(=N/NC(=S)Nc1ccccc1)c1nc2ccc(Cl)cc2[nH]1 | 0.503 µM |  | 1.15 µM |  | 0.457 µM | 0.795 µM | 1.96 µM | 1.79 µM | 2.23 µM | 0.0821 µM | 0.645 µM | 0.101 µM | 0.57 µM |  | 0.205 µM | 0.16 µM | 0.236 µM |  | 0.0989 µM | 0.0738 µM
21 | O=c1c(Cc2ccccc2)c(O)cc2n1CCC2 |  | > 100 µM | > 100 µM | > 100 µM | > 100 µM | > 100 µM |  |  |  |  |  |  |  |  |  |  |  |  |  | 
22 | N=C1CCCC1C(=S)SCCC(N)=O (centres undefined) | > 100 µM |  | > 100 µM | > 100 µM | > 100 µM | > 100 µM | > 100 µM | > 100 µM | > 100 µM |  | > 100 µM |  |  |  |  |  |  |  |  | 
23 | CC(C)(C)C#COC(=O)c1ccccc1 | > 100 µM | > 100 µM | > 100 µM | > 100 µM | > 100 µM | > 100 µM |  |  |  |  |  |  |  |  |  |  |  |  |  | 

— PubChem BioAssay (NCI)
